# ChEMBL document CHEMBL4229541, “Vinca alkaloids and analogues as anti-cancer agents: Looking back, peering ahead” (Bioorg Med Chem Lett, 2018)
# pIC50: −log10 of the molar value.
# Tests used:
# Assay type in all cases: functional, cell-based
# HCT-116 = test: Growth inhibition of human HCT116 cells
# L1210 = test: Growth inhibition of mouse L1210 cells
# HCT-116/VM46 = test: Growth inhibition of human HCT116/VM46 cells
SMILES,pIC50 (HCT-116),pIC50 (L1210),pIC50 (HCT-116/VM46)
CC[C@]1(O)C[C@@H]2CN(CCc3c([nH]c4ccccc34)[C@@](C(=O)OC)(c3cc4c(cc3OC)N(C)[C@H]3[C@@](O)(C(=O)OC)[C@H](OC(C)=O)[C@]5(CC)C[C@H](O)CN6CC[C@]43[C@@H]65)C2)C1,6.20,6.21,< 5.00
CC[C@]1(O)C[C@@H]2CN(CCc3c([nH]c4ccccc34)[C@@](C(=O)OC)(c3cc4c(cc3OC)N(C)[C@@H]3[C@]45CCN4CC=C[C@@](C)(C[C@]3(O)C(=O)OC)[C@H]45)C2)C1,6.25,6.26,5.28
CC[C@]1(SC#N)C[C@@H]2CN(CCc3c([nH]c4ccccc34)[C@@](C(=O)OC)(c3cc4c(cc3OC)N(C)[C@H]3[C@@](O)(C(=O)OC)[C@H](OC(C)=O)[C@]5(CC)C=CCN6CC[C@]43[C@@H]65)C2)C1,6.26,6.25,5.54
CC[C@]1(O)C[C@@H]2CN(CCc3c([nH]c4ccccc34)[C@@](C(=O)OC)(c3cc4c(cc3OC)N(C)[C@H]3[C@]5(O)C(=O)N(C)CCC5[C@]5(CC)CCCN6CC[C@]43C65)C2)C1 (some centres undefined),5.10,5.08,< 5.00
CC[C@]1(O)C[C@@H]2CN(CCc3c([nH]c4ccccc34)[C@@](C(=O)OC)(c3cc4c(cc3OC)N(C)[C@@H]3[C@]45CCN4CC=C[C@@](CC)(C[C@]3(O)C(=O)OC)[C@H]45)C2)C1,4.22,4.24,3.18
CC[C@]1(O)C[C@@H]2CN(CCc3c([nH]c4ccccc34)[C@@](C(=O)OC)(c3cc4c(cc3OC)N(C)[C@H]3[C@@](O)(C(=O)OC)[C@H](OC(C)=O)[C@]5(CC)C[C@@H](Cl)CN6CC[C@]43[C@@H]65)C2)C1,6.15,6.08,5.07
CC[C@]1(O)C[C@@H]2CN(CCc3c([nH]c4ccccc34)[C@@](C(=O)OC)(c3cc4c(cc3OC)N(C)[C@H]3[C@@](O)(C(=O)OC)[C@H](OC(C)=O)[C@]5(CC)C[C@@H](O)CN6CC[C@]43[C@@H]65)C2)C1,5.11,5.12,< 5.00
CC[C@]1(O)C[C@@H]2CN(CCc3c([nH]c4ccccc34)[C@@](C(=O)OC)(c3cc4c(cc3OC)N(C)[C@H]3[C@@](O)(C(=O)OC)[C@H](OC(C)=O)[C@]5(CC)C=CCN6CC[C@]43[C@@H]65)C2)C1 [VINBLASTINE],–,–,6.22
CC[C@]1(N)C[C@@H]2CN(CCc3c([nH]c4ccccc34)[C@@](C(=O)OC)(c3cc4c(cc3OC)N(C)[C@H]3[C@@](O)(C(=O)OC)[C@H](OC(C)=O)[C@]5(CC)C=CCN6CC[C@]43[C@@H]65)C2)C1,6.22,6.19,< 5.00
CC[C@]1(O)C[C@@H]2CN(CCc3c([nH]c4ccccc34)[C@@](C(=O)OC)(c3cc4c(cc3OC)N(C)[C@H]3[C@@](O)(C(=O)OC)[C@H](C(=O)OC)[C@]5(CC)C=CCN6CC[C@]43[C@@H]65)C2)C1,8.21,8.09,–
CC[C@]1(N=C=S)C[C@@H]2CN(CCc3c([nH]c4ccccc34)[C@@](C(=O)OC)(c3cc4c(cc3OC)N(C)[C@H]3[C@@](O)(C(=O)OC)[C@H](OC(C)=O)[C@]5(CC)C=CCN6CC[C@]43[C@@H]65)C2)C1,6.28,6.23,5.15
CC[C@]1(O)C[C@@H]2CN(CCc3c([nH]c4ccccc34)[C@@](C(=O)OC)(c3cc4c(cc3OC)N(C)[C@@H]3[C@]45CCN4CC=C[C@@H](C[C@]3(O)C(=O)OC)[C@H]45)C2)C1,6.40,6.21,5.46
CC[C@]1(O)C[C@@H]2CN(CCc3c([nH]c4ccccc34)[C@@](C(=O)OC)(c3cc4c(cc3OC)N(C)[C@H]3[C@]5(O)C(=O)N(C)CCC5[C@@H]5CCCN6CC[C@]43C56)C2)C1 (some centres undefined),6.28,6.24,5.18
CC[C@]1(N=[N+]=[N-])C[C@@H]2CN(CCc3c([nH]c4ccccc34)[C@@](C(=O)OC)(c3cc4c(cc3OC)N(C)[C@H]3[C@@](O)(C(=O)OC)[C@H](OC(C)=O)[C@]5(CC)C=CCN6CC[C@]43[C@@H]65)C2)C1,6.16,6.17,5.26
